Data published in the NIST ThermoML archive (doi:10.1016/j.jct.2007.07.005).

Assay: xn = mol fraction of the nth substance listed
Settings: Fluid (supercritical or subcritical phases), vibrating tube

CCCCCO [pentan-1-ol] + O=C=O
Settings | mass density [kg/m3]
342.87 K, 20033 kPa, x2 = 0.4651 | 814.31
342.87 K, 21025 kPa, x2 = 0.4651 | 815.82
342.87 K, 21037 kPa, x2 = 0.3624 | 811.12
342.87 K, 21039 kPa, x2 = 0.7274 | 812.39
342.87 K, 21983 kPa, x2 = 0.4651 | 817.26
342.87 K, 21990 kPa, x2 = 0.3624 | 812.11
342.87 K, 22001 kPa, x2 = 0.7274 | 815.49
342.87 K, 23014 kPa, x2 = 0.4651 | 818.77
342.87 K, 23015 kPa, x2 = 0.7274 | 818.69
342.87 K, 23033 kPa, x2 = 0.3624 | 813.18
342.87 K, 24005 kPa, x2 = 0.3624 | 814.16
342.87 K, 24023 kPa, x2 = 0.4651 | 820.23
342.87 K, 24099 kPa, x2 = 0.7274 | 821.95
342.87 K, 25028 kPa, x2 = 0.3624 | 815.18
342.88 K, 3034 kPa, x2 = 0.0816 | 781.33
342.88 K, 4000 kPa, x2 = 0.0816 | 782.24
342.88 K, 4969 kPa, x2 = 0.0816 | 783.19
342.88 K, 5981 kPa, x2 = 0.0816 | 784.14
342.88 K, 7023 kPa, x2 = 0.0816 | 785.12
342.88 K, 8012 kPa, x2 = 0.0816 | 786.04
342.88 K, 9030 kPa, x2 = 0.0816 | 786.97
342.88 K, 10026 kPa, x2 = 0.0816 | 787.86
342.88 K, 10992 kPa, x2 = 0.0816 | 788.72
342.88 K, 11981 kPa, x2 = 0.0816 | 789.59
342.88 K, 13062 kPa, x2 = 0.0816 | 790.54
342.88 K, 14001 kPa, x2 = 0.9216 | 654.38
342.88 K, 14013 kPa, x2 = 0.0816 | 791.33
342.88 K, 15014 kPa, x2 = 0.9216 | 679.88
342.88 K, 15025 kPa, x2 = 0.0816 | 792.19
342.88 K, 15995 kPa, x2 = 0.0816 | 793.03
342.88 K, 16009 kPa, x2 = 0.9216 | 699.02
342.88 K, 16999 kPa, x2 = 0.0816 | 793.86
342.88 K, 17032 kPa, x2 = 0.9216 | 715.18
342.88 K, 18002 kPa, x2 = 0.9216 | 728.34
342.88 K, 18009 kPa, x2 = 0.0816 | 794.69
342.88 K, 19029 kPa, x2 = 0.0816 | 795.51
342.88 K, 19057 kPa, x2 = 0.9216 | 740.82
342.88 K, 19987 kPa, x2 = 0.0816 | 796.28
342.88 K, 19996 kPa, x2 = 0.9216 | 750.81
342.88 K, 21039 kPa, x2 = 0.0816 | 797.11
342.88 K, 21039 kPa, x2 = 0.9216 | 760.88
342.88 K, 21996 kPa, x2 = 0.0816 | 797.87
342.88 K, 22026 kPa, x2 = 0.9216 | 769.6
342.88 K, 22991 kPa, x2 = 0.0816 | 798.65
342.88 K, 24056 kPa, x2 = 0.0816 | 799.48
342.88 K, 25041 kPa, x2 = 0.0816 | 800.25
342.89 K, 14024 kPa, x2 = 0.8573 | 720.89
342.89 K, 15020 kPa, x2 = 0.8573 | 735.53
342.89 K, 16007 kPa, x2 = 0.8573 | 747
342.89 K, 17031 kPa, x2 = 0.8573 | 757.08
342.89 K, 18025 kPa, x2 = 0.8573 | 765.71
342.89 K, 19016 kPa, x2 = 0.8573 | 773.47
342.89 K, 20036 kPa, x2 = 0.8573 | 780.77
342.89 K, 21016 kPa, x2 = 0.8573 | 787.25
342.89 K, 21989 kPa, x2 = 0.8573 | 793.31
342.89 K, 23049 kPa, x2 = 0.8573 | 799.42
342.89 K, 24035 kPa, x2 = 0.8573 | 804.78
342.89 K, 24945 kPa, x2 = 0.8573 | 809.51
342.95 K, 13102 kPa, x2 = 0.6054 | 801.79
342.95 K, 14086 kPa, x2 = 0.6054 | 804.2
342.95 K, 15021 kPa, x2 = 0.6054 | 806.46
342.95 K, 16051 kPa, x2 = 0.6054 | 808.84
